Experimental data taken from patent US7371768B2, “Pyrazol derivatives, pest control agent comprising the same as active ingredient, and process for producing the same” (Nihon Nohyaku Co., Ltd., priority 2000, dated 2008).
Where two headings read alike, the source gives them in different places.

Assays:
Nilaparvata lugens [1] = experiment: Insecticidal effect on larvae of brown rice planthopper, spray test; assay type: in vivo; conditions: 500 ppm, sprayed, 4th instar larvae, 25° C., after 5 days; agonizing insect counted as 1/2 dead
Method: A rice seedling was planted in a glass cylinder (inner diameter: 3 cm×length: 17 cm), and five 4th instar larvae of Nilaparvata lugens were set free therein. An agricultural and horticultural insecticide of the present invention was prepared in accordance with Formulation Example 3 and diluted with water, and 0.5 ml of the resulting dilution was sprayed into the above glass cylinder with a spraying tower (manufactured by Mizuho Rika) (duplicates at a concentration). The cylinder was kept in a constant temperature room at 25° C., and the mortality and agony of the larvae were investigated after 5 days from the treatment to obtain a death rate (%) taking an agonizing insect as a ½ dead insect. The results obtained are shown in Table 2 (the compound numbers in the table correspond to the numbers in Table 1).

Plutella xylostella = experiment: Insecticidal effect on larvae of diamond back moth, cabbage leaf disc dip; assay type: in vivo; conditions: 500 ppm, 3-instar larvae, 25° C., after 4 days, agonizing insect counted as 1/2 dead
Method: A disc (diameter: 6 cm) cut out of a cabbage leaf was for 1 minute in an aqueous dilution of the agricultural and horticultural insecticide of the present invention prepared in accordance with Formulation Example 1, then air-dried, and placed in a plastic cup (inner diameter: 7 cm). Five 3-instar larvae of Plutella xylostella were set free in the cup (duplicates at a concentration). The cup was kept in a constant temperature room at 25° C., and the death and agony of the larvae were investigated after 4 days from the treatment to obtain a death rate (%) taking an agonizing insect as a ½ dead insect. The results are shown in Table 3 (the compound numbers in the following table below correspond to the numbers in Table 1).

Callosobruchus chinensis = experiment: Insecticidal effect on imagoes of adzuki bean weevil, spray test; assay type: in vivo; conditions: 500 ppm, sprayed, 25° C., after 4 days, agonizing insect counted as 1/2 dead
Method: Two adzuki beans were put in a glass cylinder (inner diameter: 3 cm×length: 15 cm), and 10 imagoes of Callosobruchus chinensis were set free therein. An agricutural and horticultural insecticide of the present invention was prepared in accordance with Formulation and diluted with water, and 0.3 ml of the resulting dilution was sprayed in the above glass cylinder with a spray tower (manufactured by Mizuho Rika) (duplicates at a concentration). The cylinder was kept in temperature room at 25° C., and the mortality and agony of thee larvae were investigated after 4 days from the treatment to obtain a death rate (%) taking an agonizing insect as a ½ dead insect. The results obtained are shown in Table 4 (the compound numbers in the table correspond to the numbers in Table 1).

Myzus persicae = experiment: Insecticidal effect on larvae of green peach aphid, leaf soak; assay type: in vivo; conditions: 500 ppm, leaves soaked about 5 seconds, 25° C., 4th day after treatment
Method: Water was put in a screw bottle (volume: 10 ml), and a leaftalk of Japanese radish was placed therein and then inoculated with 5 to 6 insects of Myzus persicae per leave. After the inoculation, the bottle was put in a glass cylinder (diameter: 3.5 cm; height: 15 cm, with a mesh cover), and the insects were let to proliferate in a constant temperature room kept at 25° C. for 3 days. The imagoes on the leaves were removed, and the leaves were soaked in an aqueous dilution of an agricultural and horticultural insecticide of the present invention prepared in accordance with Formulation Example 3 (for about 5 seconds) and then returned into the glass cylinder (duplicates at a concentration). The cylinder was kept in the constant temperature room at 25° C., and the number of the insects on the leaves was counted on the 4th day after the treatment to obtain a death rate (%) based on the results. The results obtained are shown in Table 5 (the compound numbers in the table correspond to the numbers in Table 1).

Nilaparvata lugens [2] = experiment: Insecticidal effect on larvae of brown rice planthopper through systemic activity (root uptake); assay type: in vivo; conditions: for Death rate (%) 0.8 ppm: 0.8 ppm agent solution at rice roots; for Death rate (%) 0.8 ppm / Death rate (%) 3.1 ppm: larvae placed after 3 days, 4th day, 25° C.; for Death rate (%) 3.1 ppm: 3.1 ppm agent solution at rice roots; for insecticidal activity through systemic property, in words: summary of Table 6
Method: Roots of young rice seedlings (height: about 10 cm) planted in a plastic cup were washed with water and soil was washed away so as not to damage the fine roots. The stem was pinched by a urethane tip (diameter: 3 cm, height: 2 cm) having a cut line and the roots were inserted into an Erlenmeyer flask to which 50 ml of an agent solution (an aqueous dilution of the agricultural and horticultural insecticide of the present invention prepared in accordance with Formulation Example 1) was placed beforehand (2 to 3 young rice seedlings/flask). The urethane chip was wedged into the mouse of the flask to fix the rice seedlings. A glass tube (diameter: 3 cm, height: 5 cm) was placed thereon, wedged into the urethane chip, and fixed with a tape. The flask in such state was kept in a constant temperature room at 25° C. for 3 days. Five larvae of Nilaparvata lugens were placed in the glass tube and then the tube was capped with a urethane chip, followed by keeping in the constant temperature room at 25° C. (duplicates at a concentration). The mortality and agony of the larvae were investigated on 4th day after the treatment to obtain a death rate (%) taking an agonizing insect as a ½ dead insect. This test was carried out on two agent solutions different in the concentration of the active ingredient. The results are shown in Table 6 (the compound numbers in the table correspond to the numbers in Table 1).
Additionally, as reference compounds, Compounds I, II and III described in JP-A-10-338676 were similarly tested.

[3] = test system: Chinese hamster lung fibroblast line V79; experiment: In vitro intercellular metabolic cooperation inhibition test (IMC); assay type: cell-based
Method: In this Test Example, using an inhibitory action of gap-junctional intercellular communication as an index, the existence of carcinogenicity (tumor-promoting action) of a compound was investigated.
In this test, a mixed culture system of Chinese hamster lung fibroblast line V79 (hgprt+) having hypoxanthine-guanine phosphoribosyltransferase activity and cells having no such activity (hgprt−) was treated by adding thereto the following compounds together with 6-thioguanine (6-TG). When the intercellular communication is normal, the toxic metabolite of 6-TG formed in hgprt+ cells (6-TG sensitive) is transferred into hgprt− cells (6-TG resistant) through gap junction, so that both of the cells die. On the other hand, when the intracellular communication is inhibited by the test compound, only the hgprt− cells survive and form colonies.

Cat Flea = experiment: Insecticidal effect on cat flea, treated filter; assay type: in vivo; conditions: 0.7 mg/filter; mortality investigated on 1st day and 2nd day after treatment
Method: Onto a round filter (diameter: 10 cm) was added dropwise 0.7 ml of an agent solution diluted to a predetermined concentration. After drying, the filter was placed on the bottom of a cylinder (diameter: 10 cm×height: 30 cm). Ten fleas were set free therein and the mortality was investigated on 1st day and 2nd day after the treatment to calculate a death rate (%) based on the results. The results are shown in Table 7 (the compound numbers in the table correspond to the numbers in Table 1).

| SMILES | Death rate (%) (Nilaparvata lugens [1]) | Death rate (%) (Plutella xylostella) | Death rate (%) (Callosobruchus chinensis) | Death rate (%) (Myzus persicae) | Death rate (%) 0.8 ppm (Nilaparvata lugens [2]) [%] | Death rate (%) 3.1 ppm (Nilaparvata lugens [2]) [%] | IMC test result (inhibition of gap-junctional intercellular communication, index of tumor-promoting action) ([3]; V79 hgprt+/hgprt- mixed culture with 6-thioguanine) | Death rate (%) (Cat Flea) | insecticidal activity through systemic property, in words (Nilaparvata lugens [2]) | IMC test result (inhibition of gap-junctional intercellular communication, index of tumor-promoting action) [3] | colony forming rate ([3]; at 7.5 and 15 μg/ml, V79 hgprt+/hgprt- mixed culture with 6-thioguanine) |
| --- | --- | --- | --- | --- | --- | --- | --- | --- | --- | --- | --- |
| N#Cc1nn(-c2c(Cl)cc(C(F)(F)F)cc2Cl)c(NCc2ccncc2)c1SCF [Compound No. 1, 1-(2,6-dichloro-4-trifluoromethylphenyl)-4-fluoromethylthio-5-(pyridin-4-ylmethylamino)pyrazole-3-carbonitrile] | 100 | 100 | 100 | 100 | 100 | 100 | – | – | – | – | – |
| N#Cc1nn(-c2c(Cl)cc(C(F)(F)F)cc2Cl)c(NCc2ccccn2)c1SC(F)F [Compound No. 2, 1-(2,6-dichloro-4-trifluoromethylphenyl)-4-difluoromethylthio-5-(pyridin-2-ylmethylamino)pyrazole-3-carbonitrile] | 100 | 100 | 100 | 100 | 100 | 100 | negative | 100 | – | – | – |
| N#Cc1nn(-c2c(Cl)cc(C(F)(F)F)cc2Cl)c(NCc2ccccn2)c1SC(F)(F)F [III] | – | – | – | – | 0 | 0 | – | – | obviously inferior effect | – | – |
| CSc1c(C#N)nn(-c2c(Cl)cc(C(F)(F)F)cc2Cl)c1NCc1ccncc1 [Compound I] | – | – | – | – | 100 | 100 | – | – | insecticidal activity through a high systemic property | positive | significant increase |
| N#Cc1nn(-c2c(Cl)cc(C(F)(F)F)cc2Cl)c(NCc2ccncc2)c1SC(F)(F)F [II] | – | – | – | – | 20 | 50 | – | – | obviously inferior effect | – | – |
